Results from US8501936B2 (priority 2009, dated 2013).

Assays:
human JAK2 = human JAK2 (Homo sapiens (Human), UniProt O60674); conditions: read-out: JAK2 IC50
human FAK = human FAK (Homo sapiens (Human), UniProt Q05397); conditions: read-out: FAK IC50
human FAK, sequence (Q05397 whole entry): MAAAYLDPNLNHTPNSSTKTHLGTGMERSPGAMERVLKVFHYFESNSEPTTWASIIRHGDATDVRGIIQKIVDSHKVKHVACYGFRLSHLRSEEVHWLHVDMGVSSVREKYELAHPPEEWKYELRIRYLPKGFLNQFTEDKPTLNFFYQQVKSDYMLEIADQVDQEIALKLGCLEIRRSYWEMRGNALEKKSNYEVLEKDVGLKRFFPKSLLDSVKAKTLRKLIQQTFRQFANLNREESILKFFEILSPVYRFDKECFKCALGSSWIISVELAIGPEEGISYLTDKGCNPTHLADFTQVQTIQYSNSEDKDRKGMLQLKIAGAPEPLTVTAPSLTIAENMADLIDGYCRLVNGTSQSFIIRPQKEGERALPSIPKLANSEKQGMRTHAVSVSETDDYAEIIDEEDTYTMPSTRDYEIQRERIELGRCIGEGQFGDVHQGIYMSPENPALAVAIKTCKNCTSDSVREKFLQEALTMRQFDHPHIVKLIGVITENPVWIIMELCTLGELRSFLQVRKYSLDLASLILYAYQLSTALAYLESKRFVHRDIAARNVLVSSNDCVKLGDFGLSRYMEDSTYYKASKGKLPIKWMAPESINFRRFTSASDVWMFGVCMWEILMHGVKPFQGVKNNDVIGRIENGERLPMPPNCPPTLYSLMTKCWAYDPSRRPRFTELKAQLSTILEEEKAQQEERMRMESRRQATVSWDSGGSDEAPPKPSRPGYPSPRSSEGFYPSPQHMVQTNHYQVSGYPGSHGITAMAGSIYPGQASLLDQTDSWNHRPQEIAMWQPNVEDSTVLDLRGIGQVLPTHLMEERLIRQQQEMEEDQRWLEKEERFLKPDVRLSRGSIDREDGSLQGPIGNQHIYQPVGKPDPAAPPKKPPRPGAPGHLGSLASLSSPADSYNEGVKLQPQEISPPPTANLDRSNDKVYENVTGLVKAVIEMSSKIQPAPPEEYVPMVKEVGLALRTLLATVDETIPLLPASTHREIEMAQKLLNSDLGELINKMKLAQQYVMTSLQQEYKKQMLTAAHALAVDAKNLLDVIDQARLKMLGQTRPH

human JAK2, sequence (O60674 815-1132): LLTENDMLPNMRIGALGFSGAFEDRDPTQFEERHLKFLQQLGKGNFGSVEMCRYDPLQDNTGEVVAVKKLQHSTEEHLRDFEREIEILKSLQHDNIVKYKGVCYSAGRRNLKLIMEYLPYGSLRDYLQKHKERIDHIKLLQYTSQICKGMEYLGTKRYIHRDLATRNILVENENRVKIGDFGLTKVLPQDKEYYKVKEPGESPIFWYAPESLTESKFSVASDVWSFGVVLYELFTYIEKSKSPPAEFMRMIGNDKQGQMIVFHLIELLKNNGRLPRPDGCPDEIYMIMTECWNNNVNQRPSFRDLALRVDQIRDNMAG

Structure (SMILES) | IC50 (human JAK2) [µM] | IC50 (human FAK) [µM]
CS(=O)(=O)c1ccc(OCC(F)F)c(-c2cccn3nc(Nc4ccc5c(c4)CCNCC5)nc23)c1 [Example 372, {8-[2-(2,2-Difluoro-ethoxy)-5-methanesulfonyl-phenyl]-[1,2,4]triazolo[1,5-a]pyridin-2-yl}-(2,3,4,5-tetrahydro-1H-3-benzazepin-7-yl)-amine] | 0.6 | 10
CN(C)C(=O)CN1CCc2ccc(Nc3nc4c(-c5cc(S(C)(=O)=O)ccc5OCC(F)F)cccn4n3)cc2CC1 [Example 373, 2-(7-{8-[2-(2,2-Difluoro-ethoxy)-5-methanesulfonyl-phenyl]-[1,2,4]triazolo[1,5-a]pyridin-2-ylamino}-1,2,4,5-tetrahydro-3-benzazepin-3-yl)-N,N-dimethyl-acetamide] | 0.505 | 10
FC(F)(F)c1cccc(-c2cccn3nc(Nc4ccc5c(c4)CCNCC5)nc23)c1 [Example 375, (2,3,4,5-Tetrahydro-1H-3-benzazepin-7-yl)-[8-(3-trifluoromethyl-phenyl)-[1,2,4]triazolo[1,5-a]pyridin-2-yl]-amine] | 0.0425 | 0.422
FC(F)COc1ccc(Cl)cc1-c1cccn2nc(Nc3ccc4c(c3)CCNCC4)nc12 [Example 377, {8-[5-Chloro-(2,2-difluoro-ethoxy)-phenyl]-[1,2,4]triazolo[1,5-a]pyridin-2-yl}-(2,3,4,5-tetrahydro-1H-3-benzazepin-7-yl)-amine] | 0.044 | 0.443
CN(C)C(=O)CN1CCc2ccc(Nc3nc4c(-c5cc(F)ccc5OCC(F)F)cccn4n3)cc2CC1 [Example 378, 2-(7-{8-[2-(2,2-Difluoro-ethoxy)-5-fluoro-phenyl]-[1,2,4]triazolo[1,5-a]pyridin-2-ylamino}-1,2,4,5-tetrahydro-3-benzazepin-3-yl)-N,N-dimethyl-acetamide] | 0.52 | 1.25
CC(C)COc1ccc(C(F)(F)F)cc1-c1cccn2nc(Nc3ccc4c(c3)CCN(CC(=O)N(C)C)CC4)nc12 [Example 380] | 3 | 3
CN(C)C(=O)N1CCc2ccc(Nc3nc4c(-c5cc(Cl)ccc5OCC(F)F)cccn4n3)cc2CC1 [Example 382, 7-{8-[5-Chloro-2-(2,2-difluoro-ethoxy)-phenyl]-[1,2,4]triazolo[1,5-a]pyridin-2-ylamino}-1,2,4,5-tetrahydro-3-benzazepine-3-carboxylic acid dimethylamide] | 0.198 | 2
FC(F)COc1ccc(C(F)F)cc1-c1cccn2nc(Nc3ccc4c(c3)CCNCC4)nc12 [Example 384, {8-[2-(2,2-Difluoro-ethoxy)-5-difluoromethyl-phenyl]-[1,2,4]triazolo[1,5-a]pyridin-2-yl}-(2,3,4,5-tetrahydro-1H-3-benzazepin-7-yl)-amine] | 0.203 | 1.08
CN(C)C(=O)CN1CCc2ccc(Nc3nc4c(-c5cc(C(F)F)ccc5OCC(F)F)cccn4n3)cc2CC1 [Example 385, 2-(7-{8-[2-(2,2-difluoro-ethoxy)-5-difluoromethyl-phenyl]-[1,2,4]triazolo[1,5-a]pyridin-2-ylamino}-1,2,4,5-tetrahydro-3-benzazepin-3-yl)-N,N-dimethyl-acetamide] | 0.27 | 1.12
CN1CCN(c2cncc(Nc3nc4c(-c5ccc(S(C)(=O)=O)cc5)cccn4n3)n2)CC1 [Example 386, [8-(4-Methanesulfonyl-phenyl)-[1,2,4]triazolo[1,5-a]pyridin-2-yl]-(4-methyl-3,4,5,6-tetrahydro-2H-[1,2′]bipyrazinyl-6′-yl)-amine] | 0.0299 | 10
COc1ccccc1CNc1cccn2nc(Nc3ccc(N4CCN(C)CC4)cc3)nc12 [Example 387, N(8)-(2-Methoxy-benzyl)-N(2)-[4-(4-methyl-piperazin-1-yl)-phenyl]-[1,2,4]triazolo[1,5-a]pyridine-2,8-diamine] | 0.0123 | 0.553
COc1ccccc1CNc1cccn2nc(Nc3cccc(N4CCN(C)CC4)c3)nc12 [Example 388, N(8)-(2-Methoxy-benzyl)-N(2)-[3-(4-methyl-piperazin-1-yl)-phenyl]-[1,2,4]triazolo[1,5-a]pyridine-2,8-diamine] | 0.046 | 0.951
CN1CCN(c2cncc(Nc3nc4c(NCc5ccccc5N(C)S(C)(=O)=O)cccn4n3)n2)CC1 [Example 389, N-Methyl-N-(2-{[2-(4-methyl-3,4,5,6-tetrahydro-2H-[1,2′]bipyrazinyl-6′-ylamino)-[1,2,4]triazolo[1,5-a]pyridin-8-ylamino]-methyl}-phenyl)-methanesulfonamide] | 6.5 | 1.06
COc1cccc(CNc2cccn3nc(Nc4ccc(N5CCN(C)CC5)cc4)nc23)c1 [Example 390, N(8)-(3-Methoxy-benzyl)-N(2)-[4-(4-methyl-piperazin-1-yl)-phenyl]-[1,2,4]triazolo[1,5-a]pyridine-2,8-diamine] | 1.34 | 10
COc1ccc(CNc2cccn3nc(Nc4ccc(N5CCN(C)CC5)cc4)nc23)cc1 [Example 391, N(8)-(4-Methoxy-benzyl)-N(2)-[4-(4-methyl-piperazin-1-yl)-phenyl]-[1,2,4]triazolo[1,5-a]pyridine-2,8-diamine] | 3.02 | 10
COc1cccc(CNc2cccn3nc(Nc4cccc(N5CCN(C)CC5)c4)nc23)c1 [Example 392, N(8)-(3-Methoxy-benzyl)-N(2)-[3-(4-methyl-piperazin-1-yl)-phenyl]-[1,2,4]triazolo[1,5-a]pyridine-2,8-diamine] | 3 | 10

Structure (SMILES) | IC50 (human JAK2) [µM] | IC50 (human FAK) [µM]
COc1ccc(CNc2cccn3nc(Nc4cccc(N5CCN(C)CC5)c4)nc23)cc1 [Example 393, N(8)-(4-Methoxy-benzyl)-N(2)-[3-(4-methyl-piperazin-1-yl)-phenyl]-[1,2,4]triazolo[1,5-a]pyridine-2,8-diamine] | 10 | 10
COc1cccc(CNc2cccn3nc(Nc4ccc(OC)nc4)nc23)c1 [Example 394, N(8)-(3-Methoxy-benzyl)-N(2)-(6-methoxy-pyridin-3-yl)-[1,2,4]triazolo[1,5-a]pyridine-2,8-diamine] | 10 | 10
CN1CCN(c2cccc(Nc3nc4c(NCc5ccccc5F)cccn4n3)c2)CC1 [Example 395, N(8)-(2-Fluoro-benzyl)-N(2)-[3-(4-methyl-piperazin-1-yl)-phenyl]-[1,2,4]triazolo[1,5-a]pyridine-2,8-diamine] | 0.18 | 1.48
CN1CCN(c2cccc(Nc3nc4c(NCc5ccc(F)cc5)cccn4n3)c2)CC1 [Example 396, N(8)-(4-Fluoro-benzyl)-N(2)-[3-(4-methyl-piperazin-1-yl)-phenyl]-[1,2,4]triazolo[1,5-a]pyridine-2,8-diamine] | 1.43 | 10
COc1cccc(CNc2cccn3nc(Nc4ccnc(C)c4)nc23)c1 [Example 397, N(8)-(3-Methoxy-benzyl)-N(2)-(2-methyl-pyridin-4-yl)-[1,2,4]triazolo[1,5-a]pyridine-2,8-diamine] | 0.592 | 10
COc1cccc(CNc2cccn3nc(Nc4cccnc4)nc23)c1 [Example 398, N(8)-(3-Methoxy-benzyl)-N(2)-pyridin-3-yl-[1,2,4]triazolo[1,5-a]pyridine-2,8-diamine] | 0.816 | 10
COc1ccccc1CNc1cccn2nc(Nc3cccnc3)nc12 [Example 400, N(8)-(2-Methoxy-benzyl)-N(2)-pyridin-3-yl-[1,2,4]triazolo[1,5-a]pyridine-2,8-diamine] | 0.0323 | 3.12
COc1ccc(Nc2nc3c(NCc4ccccc4OC)cccn3n2)cn1 [Example 402, N(8)-(2-Methoxy-benzyl)-N(2)-(6-methoxy-pyridin-3-yl)-[1,2,4]triazolo[1,5-a]pyridine-2,8-diamine] | 0.0427 | 3
COc1ccccc1CNc1cccn2nc(Nc3ccc(C)nc3)nc12 [Example 403, N(8)-(2-Methoxy-benzyl)-N(2)-(6-methyl-pyridin-3-yl)-[1,2,4]triazolo[1,5-a]pyridine-2,8-diamine] | 0.0276 | 1.88
COc1ccccc1CNc1cccn2nc(Nc3ccnc(C)c3)nc12 [Example 404, N(8)-(2-Methoxy-benzyl)-N(2)-(2-methyl-pyridin-4-yl)-[1,2,4]triazolo[1,5-a]pyridine-2,8-diamine] | 0.0247 | 2.58
COc1cccc(CNc2cccn3nc(Nc4ccc(C)nc4)nc23)c1 [Example 405, N(8)-(3-Methoxy-benzyl)-N(2)-(6-methyl-pyridin-3-yl)-[1,2,4]triazolo[1,5-a]pyridine-2,8-diamine] | 1.02 | 10
CS(=O)(=O)c1ccc(-c2cccn3nc(NCCc4ccccn4)nc23)cc1 [Example 406, [8-(4-Methanesulfonyl-phenyl)-[1,2,4]triazolo[1,5-a]pyridin-2-yl]-(2-pyridin-2-yl-ethyl)-amine] | 10 | 10
CS(=O)(=O)c1ccc(-c2cccn3nc(NCCc4cccnc4)nc23)cc1 [Example 407, [8-(4-Methanesulfonyl-phenyl)-[1,2,4]triazolo[1,5-a]pyridin-2-yl]-(2-pyridin-3-yl-ethyl)-amine] | 1.98 | 10
CS(=O)(=O)c1ccc(-c2cccn3nc(NCc4cccnc4)nc23)cc1 [Example 408, [8-(4-Methanesulfonyl-phenyl)-[1,2,4]triazolo[1,5-a]pyridin-2-yl]-pyridin-3-ylmethyl-amine] | 2.76 | 10
CS(=O)(=O)c1ccc(-c2cccn3nc(NCc4ccccn4)nc23)cc1 [Example 409, [8-(4-Methanesulfonyl-phenyl)-[1,2,4]triazolo[1,5-a]pyridin-2-yl]-pyridin-2-ylmethyl-amine] | 6.5 | 10
CCN1CCP(=O)(c2ccc(Nc3nc4c(-c5ccc(S(C)(=O)=O)cc5)cccn4n3)cc2)CC1 [Example 411, N-[4-(1-ethyl-4-oxido-1,4-azaphosphinan-4-yl)phenyl]-8-[4-(methylsulfonyl)phenyl][1,2,4]triazolo[1,5-a]pyridin-2-amine] | 0.00162 | 1.86
